# Patent US6140338A, “Chemokine receptor antagonists” (Banyu Pharmaceutical, Co., Ltd., priority 1996, dated 2000)
# T1: chemokine receptor CCR3 (Homo sapiens, UniProt P51677)
# T1 construct: expressed in transfected cells
# T1 sequence (P51677 1-355): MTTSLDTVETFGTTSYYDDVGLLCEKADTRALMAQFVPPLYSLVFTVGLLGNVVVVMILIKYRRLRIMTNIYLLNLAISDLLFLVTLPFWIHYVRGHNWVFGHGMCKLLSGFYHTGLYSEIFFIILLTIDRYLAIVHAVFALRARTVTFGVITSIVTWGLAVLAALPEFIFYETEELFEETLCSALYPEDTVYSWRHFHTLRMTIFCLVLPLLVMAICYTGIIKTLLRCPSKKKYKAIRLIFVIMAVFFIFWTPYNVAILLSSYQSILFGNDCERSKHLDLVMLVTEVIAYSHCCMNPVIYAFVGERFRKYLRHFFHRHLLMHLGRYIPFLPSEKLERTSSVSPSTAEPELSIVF
# T2: human chemokine receptor CCR1 (Homo sapiens, UniProt P32246)
# T2 construct: expressed in transfected cells
# T2 sequence (P32246 1-355): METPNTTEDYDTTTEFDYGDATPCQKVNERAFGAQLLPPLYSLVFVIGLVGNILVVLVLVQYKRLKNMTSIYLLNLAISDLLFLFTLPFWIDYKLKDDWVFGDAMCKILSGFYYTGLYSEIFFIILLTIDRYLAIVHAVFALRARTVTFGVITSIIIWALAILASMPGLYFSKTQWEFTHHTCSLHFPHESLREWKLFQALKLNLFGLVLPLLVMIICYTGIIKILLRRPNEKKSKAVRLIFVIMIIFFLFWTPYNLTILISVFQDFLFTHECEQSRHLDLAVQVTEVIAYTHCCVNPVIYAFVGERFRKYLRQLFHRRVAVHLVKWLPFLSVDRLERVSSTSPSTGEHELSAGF
# Assays:
# chemokine receptor CCR3 = biological target: T1, chemokine receptor CCR3; experiment: Inhibitory activity against binding to the chemokine receptor CCR3 ([125I]Eotaxin binding, CHO cells); conditions: 50 pM [125I]Eotaxin, 90 minutes, 37° C, pH 7.4, CHO cells expressing CCR3; read-out: 50% inhibitory concentration (IC50 value) against [125I]Eotaxin binding
# Description: Further, an expression vector of a gene which codes chemokine receptor CCR3 was transfected to CHO cell by using lipofectamine to obtain a stable cell strain resistant against 0.5 mg/ml of G418. The stable cell strain, 50 pM[^125 I]Eotaxin (2000 Ci/mmol, manufactured by Amersham) and a test compound were suspended in 0.2 ml of Krebs-Ringer/0.1% bovine serum albumin/0.1% glucose (pH 7.4) and incubated for 90 minutes at a temperature of 37° C. Then, it was subjected to filtration by means of a glass filter GF/C which was preliminarily impregnated in 1% polyethyleneimine, and washed with 1 ml of Krebs-Ringer/0.1% bovine serum albumin/0.1% glucose (pH 7.4), whereby radio activity on the glass filter was measured. The binding affinity to the chemokine receptors CCR3 was shown as a 50% inhibitory concentration (IC50 value) of the compounds of the present invention against [^125 I]Eotaxin binding.
# CCR3 = CCR3 antagonist activities (Eotaxin-induced intracellular calcium increase in human eosinophils); type: cell-based; conditions: 41 nM compound 5 minutes before agonist Eotaxin (10 nM), Fura2
# Description: By using human eosinophil which stably express CCR3, the activity of the compounds of the present invention to intracellular calcium concentration was measured by the following method. […] of Fura2 acetoxymethyl ester (produced by Dojin Kagaku Laboratories) was added to eosinophils and incubated for 30 minutes at a temperature of 37° C. Then, the mixture was excited by irradiation with light at 340 nm and 380 nm, fluorescence at 500 nm was measured, 340/380 ratio was monitored, thereby intracellular calcium concentration was calculated.
# [1] = biological target: T2, human chemokine receptor CCR1; experiment: Inhibitory activity against binding to the chemokine receptor CCR1 ([125I]MIP-1 alpha binding, CHO cells); conditions: 50 pM [125I]MIP-1 alpha, 90 minutes, 37° C, pH 7.4, CHO cells expressing CCR1; read-out: 50% inhibitory concentration (IC50 value) against [125I]MIP-1 alpha binding
# Description: cDNAs which code human chemokine receptor CCR1 was subcloned to Hind III/Xba I part of the expression vector pRc/CMV (Invitrogen) to prepare pRc/CMV CCR1. Then, pRc/CMV CCR1 was transfected to CHO cells by using lipofectamine (GIBCO) to obtain a stable cell strain resistant against 0.5 mg/ml of G418.
# The stable cell strain, 50 pM[^125 I]MIP-1 alpha (2000 Ci/mmol, manufactured by New England Nuclear) and a test compound were suspended in 0.2 ml of Krebs-Ringer/0.1% bovine serum albumin/0.1% glucose (pH 7.4), and incubated for 90 minutes at a temperature of 37° C. Then, it was subjected to filtration by means of a glass filter GF/C which was preliminarily impregnated in 1% of polyethyleneimine, and washed with 1 ml of Krebs-Ringer/0.1% bovine serum albumin/0.1% glucose (pH 7.4), whereby radio activity on the glass filter was measured. The binding affinity to the chemokine receptors CCR1 was shown as a 50% inhibitory concentration (IC50 value) of the compound of the present invention against [^125 I]MIP-1 alpha binding.
# chemokine receptor CCR1 = experiment: Activities to intracellular cyclic AMP concentration (CHO cells stably expressing CCR1); type: cell-based, human
# Description: By using CHO cells which stably express the chemokine receptor CCR1, the activity of the test compounds to intracellular cyclic AMP concentration had been studied.
# The CHO cells was suspended in Locke's solution (pH 7.4:154 mM of sodium chloride, 5.6 mM of potassium chloride, 2 mM of calcium chloride, 1 mM of magnesium chloride, 0.1% glucose, 10 mM of Hepes and 0.3 mM of isobutylmethylxanthine), and preliminarily incubated at a temperature of 37° C. for 5 minutes, and 100 nM of hMIP-1 alpha and 0.01 mM of Forskolin were added thereto. The reaction was kept for 10 minutes and terminated by adding trichloroacetic acid. The reaction mixture was centrifuged at 15000 rpm for 5 minutes and supernatant was obtained. Trichloroacetic acid in the supernatant was removed by extraction with diethyl ether, and the supernatant was evaporated to dryness by centrifugal evaporator. The cyclic AMP concentration in the sample thus obtained was measured by cyclic AMP kit (produced by Amersham). The activity of test compounds to the cyclic AMP concentration was obtained by studying antagonism against hMIP-1 alpha by adding 0.01 mM of the test compounds 5 minutes before adding 100 nM of hMIP-1 alpha.
# [2] = control reactions: 0.01 mM Forskolin solely, or with 100 nM hMIP-1 alpha, no test compound
Molecule,IC50 (chemokine receptor CCR3) [nM],inhibitory ratio (%) of increase in the concentration of intracellular calcium (CCR3) [%],IC50 [1] [nM],cAMP concentration (chemokine receptor CCR1; 0.01 mM Forskolin + 100 nM hMIP-1 alpha + 0.01 mM test compound added 5 minutes before hMIP-1 alpha),cAMP concentration (chemokine receptor CCR1; [2])
"CC[N+]1(CC2CCCCCCC2)CCC(NC(=O)C2c3cc(Br)ccc3Oc3ccc(Br)cc32)CC1 (single isomer, unassigned) [Example 26 (named cis for convenience), cis*-1-cyclooctylmethyl-1-ethyl-4-(2,7-dibromoxanthene-9-carboxamido)piperidinium iodide]",2.7,51,1.9,,
"CC[N+]1(CC2CCCCCCC2)CCC(NC(=O)C2c3ccccc3Oc3ccccc32)CC1.[I-] (stereo not drawn) [Example 12, 1-cyclooctylmethyl-1-ethyl-4-(xanthene-9-carboxamido)piperidinium iodide]",40,,5.2,81.6 +/- 4.2 pmol/10^6 cells,
"C[N+]1(CC2CCCCCCC2)CCC(NC(=O)C2c3cc(Br)ccc3Oc3ccc(Br)cc32)CC1 (stereo not drawn) [Example 22, 1-cyclooctylmethyl-1-methyl-4-(2,7-dibromoxanthene-9-carboxamido)piperidinium iodide]",13,,3.9,,
"CC[N+]1(CC2=CCCCCCC2)CCC(NC(=O)C2c3cc(Cl)ccc3Oc3ccc(Cl)cc32)CC1 (stereo not drawn) [Example 59 (named cis for convenience), cis*-1-(1-cyclooctenylmethyl)-1-ethyl-4-(2,7-dichloroxanthene-9-carboxamido)piperidinium iodide]",,97,,,
O=C(NC1CCN(CC2=CCCCCCCC2)CC1)C1c2ccccc2Oc2ccccc21 [Example 61 (named cis for convenience)],1.7,,1.8,,
"CC[N+]1(CC2=CCCCCCC2)CCC(NC(=O)C2c3cc(Cl)ccc3Oc3ccc(Cl)cc32)CC1 (stereo not drawn) [Example 62 (named cis for convenience), cis*-1-(1-cyclooctenylmethyl)-1-ethyl-4-(2,7-dichloroxanthene-9-carboxamido)piperidinium bromide]",0.74,,1.8,,
"C=C[C@@]1(C)CC(=O)[C@]2(O)[C@@]3(C)[C@@H](O)CCC(C)(C)[C@@H]3[C@H](O)[C@H](OC(C)=O)[C@@]2(C)O1 [Forskolin, reference compound]",,,,,67.8 +/- 8.4 pmol/10^6 cells
"hMIP - 1 alpha: chemokine (polypeptidic leukocytic migration factor), agonist used at 100 nM (protein, UniProt P10147 24-92, looked up) C-C motif chemokine 3: SLAADTPTACCFSYTSRQIPQNFIADYFETSSQCSKPGVIFLTKRSRQVCADPSEEWVQKYVSDLELSA",,,,,47.7 +/- 4.2 pmol/10^6 cells
